Measured values reported in ChEMBL document CHEMBL2390842, “Development of indole/indazole-aminopyrimidines as inhibitors of c-Jun N-terminal kinase (JNK): optimization for JNK potency and physicochemical properties” (Bioorg Med Chem Lett, 2013).
Values after ≈ are worked out from the molar mass of the structure shown.

What was measured:
[1] = Half life in dog at 2 mg/kg, po; type: ADME, organism-based, Canis lupus familiaris; design: dose 2 mg/kg, route oral; details: in vivo
[2] = Oral bioavailability in dog at 2 mg/kg; type: ADME, organism-based, Canis lupus familiaris; details: in vivo
[3] = Oral bioavailability in rat at 2 mg/kg; type: ADME, organism-based; details: in vivo
[4] = Clearance in dog at 0.5 mg/kg, iv; type: ADME, organism-based, Canis lupus familiaris; design: dose 0.5 mg/kg, route intravenous; details: in vivo
[5] = Half life in dog at 0.5 mg/kg, iv; type: ADME, organism-based, Canis lupus familiaris; design: dose 0.5 mg/kg, route intravenous; details: in vivo
[6] = Half life in rat at 0.5 mg/kg, iv; type: ADME, organism-based; design: dose 0.5 mg/kg, route intravenous; details: in vivo
[7] = Half life in rat at 2 mg/kg, po; type: ADME, organism-based; design: dose 2 mg/kg, route oral; details: in vivo
[8] = Clearance in rat at 0.5 mg/kg, iv; type: ADME, organism-based; design: dose 0.5 mg/kg, route intravenous; details: in vivo
[9] = target: Mitogen-activated protein kinase 9 (Homo sapiens, UniProt P45984); test: Inhibition of human JNK2alpha2 using GST-tagged ATF2 as substrate preincubated for 10 mins prior to substrate addition measured after 30 mins by microplate scintillation counting analysis
Sequence of Mitogen-activated protein kinase 9 (P45984 whole entry): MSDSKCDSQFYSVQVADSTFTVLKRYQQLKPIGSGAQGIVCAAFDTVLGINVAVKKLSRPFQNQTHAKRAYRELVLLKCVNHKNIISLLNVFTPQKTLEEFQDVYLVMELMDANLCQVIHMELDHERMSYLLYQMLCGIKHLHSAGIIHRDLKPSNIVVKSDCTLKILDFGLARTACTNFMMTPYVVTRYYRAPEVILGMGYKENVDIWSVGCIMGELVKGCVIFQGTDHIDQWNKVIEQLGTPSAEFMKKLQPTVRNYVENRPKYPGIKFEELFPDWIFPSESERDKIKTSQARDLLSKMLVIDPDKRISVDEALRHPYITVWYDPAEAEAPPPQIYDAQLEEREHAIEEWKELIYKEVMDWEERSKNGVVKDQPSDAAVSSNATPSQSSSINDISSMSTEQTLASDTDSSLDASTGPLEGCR

[10] = Solubility of the compound in phosphate buffer at pH 6.4; type: physicochemical
[11] = Permeability from apical to basolateral side in human Caco2 cells; type: ADME, cell-based; details: Caco-2
Caco-2 = test: Efflux ratio of permeability from […] side in human Caco2 cells; type: ADME, cell-based
[12] = target: c-Jun N-terminal kinase, JNK (Homo sapiens, UniProt P45983+P53779+P45984); test: Inhibition of JNK-mediated c-Jun activation in TNFalpha-induced human SW1353 cells preincubated for 30 mins prior to TNFalpha treatment measured after 20 mins; type: cell-based
[13] = target: Mitogen-activated protein kinase 8 (Homo sapiens, UniProt P45983); test: Inhibition of human JNK1alpha1 using GST-tagged ATF2 as substrate preincubated for 10 mins prior to substrate addition measured after 30 mins by microplate scintillation counting analysis
Sequence of Mitogen-activated protein kinase 8 (P45983 whole entry): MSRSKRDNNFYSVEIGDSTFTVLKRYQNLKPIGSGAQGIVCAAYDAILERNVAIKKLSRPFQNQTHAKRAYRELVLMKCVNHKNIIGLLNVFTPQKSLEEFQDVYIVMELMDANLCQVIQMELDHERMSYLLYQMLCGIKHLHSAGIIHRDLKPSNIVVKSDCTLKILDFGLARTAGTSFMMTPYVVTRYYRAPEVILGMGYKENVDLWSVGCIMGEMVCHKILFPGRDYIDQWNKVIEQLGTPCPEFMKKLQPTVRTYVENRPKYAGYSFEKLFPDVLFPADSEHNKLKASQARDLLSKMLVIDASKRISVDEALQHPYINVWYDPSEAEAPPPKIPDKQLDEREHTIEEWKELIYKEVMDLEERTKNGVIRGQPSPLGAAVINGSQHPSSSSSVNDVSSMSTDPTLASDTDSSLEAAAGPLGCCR

Compound: CS(=O)(=O)C1CCN(c2cccc3c2ccn3-c2ccnc(N[C@H]3CC[C@H](O)CC3)n2)CC1
- half-life [1]: 3.4 h
- bioavailability [2]: 15%
- bioavailability [3]: 100%
- clearance [4]: 10.6 mL/min/kg
- half-life [5]: 4.5 h
- half-life [6]: 0.7 h
- half-life [7]: 2 h
- clearance [8]: 47 mL/min/kg
- IC50 [9]: 20 nM
- solubility [10]: 5.2 µg/mL (≈ 11.1 µM)
- Papp A→B [11]: 10.5 ×10⁻⁶ cm/s

Compound: CS(=O)(=O)C1CCN(c2cccc3c2cnn3-c2ccnc(N[C@H]3CC[C@H](O)CC3)n2)CC1
- Ratio (Caco-2): 5
- IC50 [12]: 290 nM
- IC50 [13]: 6 nM
- solubility [10]: 3.5 µg/mL (≈ 7.44 µM)
- Papp A→B [11]: 3.8 ×10⁻⁶ cm/s

Compound: CS(=O)(=O)N[C@H]1CC[C@H](Nc2nccc(-n3ccc4c(N5CCN(C(=O)CC#N)CC5)cccc43)n2)CC1
- IC50 [12]: 200 nM
- IC50 [13]: 5 nM

Compound: CS(=O)(=O)C1CCN(c2cccc3c2ccn3-c2ccnc(N[C@H]3CC[C@H](C(=O)N4CCn5cnnc5C4)CC3)n2)CC1
- Papp A→B [11]: 0.1 ×10⁻⁶ cm/s

Compound: CC(=O)N[C@H]1CC[C@H](Nc2nccc(-n3ccc4c(N5CCC(S(C)(=O)=O)CC5)cccc43)n2)CC1
- IC50 [12]: 700 nM
- IC50 [13]: 7 nM

Compound: CS(=O)(=O)C1CCN(c2cccc3c2ccn3-c2ccnc(N[C@H]3CC[C@H](C(=O)N4CCC(O)CC4)CC3)n2)CC1
- Papp A→B [11]: 0.4 ×10⁻⁶ cm/s

Compound: CS(=O)(=O)N[C@H]1CC[C@H](Nc2nccc(-n3ccc4c(N5CCC(S(C)(=O)=O)CC5)cccc43)n2)CC1
- IC50 [12]: 710 nM
